Data reported in article PMC11747586, “Synthesis and Investigation of Peptide–Drug Conjugates Comprising Camptothecin and a Human Protein‐Derived Cell‐Penetrating Peptide” (Chemical Biology & Drug Design, 2025).
Where two headings read alike, the source gives them in different places. Residues, ends and D or L forms follow the SMILES beside them.

Columns and labels:
cells = test: cells
Experimental: (§1) Cell death was measured using resazurin, with 0.1% (v/v) Triton X‐100 as a control for 100% cell death. Data points are expressed as mean ± SD for at least two biological replicates. Dose response curves were fitted using [inhibitor] versus response with variable slope, Graphpad Prism v10. […] RBC lysis was determined by measuring released hemoglobin, with 0.1% (v/v) Triton X‐100 as a control for 100% cell lysis. Melittin was included as a membranolytic control. Data points are expressed as mean ± SD for two technical replicates. Dose response curves were fitted using [inhibitor] versus response with variable slope, Graphpad Prism v10. […] CC50 values are expressed as mean (SEM).
(§2) Cell death was measured using resazurin, with 0.1% (v/v) Triton X-100 as a control for 100% cell death. Data points are expressed as mean ± SD for at least two biological replicates. CC50 values are expressed as mean (SEM). Note: CPT-dipeptide-PDIP was not included in this study. c[A]PDIP is a desulfurized variant of cPDIP 2 (see Table S1) to prevent the presence of free thiol during assays. […]
(§3) HaCaT cells were grown in DMEM medium and HT144 cells were grown in RPMI medium supplemented with 2 mM L-glutamine and 10 mM sodium pyruvate. Media were supplemented with 10% (v/v) fetal bovine serum, 100 units/mL of penicillin and […] of streptomycin. Flasks of cultured cells were maintained in a humidified incubator (37 °C, 5% CO2) and passaged every 2–3 days to maintain cultures between 20–90% confluence. Cell line identity was verified by comparing […]
(§4) STR profiles of the cell lines against database entries from the DSMZ-German collection of microorganisms and cell cultures, GmBH https://celldive.dsmz.de/str/browse.
(§5) Toxicity to the HT144 and HaCaT cell lines was tested following peptide treatment by measuring the metabolism of resazurin into fluorescent resorufin. The assays were performed with 5000 cells/well (96-well plate) in serum free media. Cells were incubated with serially diluted peptides, PDCs or […]

HT144 (melanoma) cells = test: cells; conditions: 72 h, concentration range 16 nM—2 μM
Experimental: as §1, §2, §3, §4, §5

[1] = Parallel artificial membrane permeability assay (PAMPA); type: in vitro ADME; conditions: for Papp at 4 h, 4 μM: PAMPA
Experimental: FIGURE 4 (A) Membrane permeability and cellular uptake of PDCs, scaffold peptides, and CPT. Compounds were added to PAMPA wells (4 μM) and incubated for 4 h. Supernatant from apical and basolateral sides of the membrane were collected and analyzed using LC–MS. The amount in the combined soluble fractions was compared to the starting amount to determine % recovery, and the apparent permeability (Papp) was calculated as before (Sevin et al. [2013]). Data is expressed as mean ± SD from a single experiment with three technical replicates. (B) Internalization/cell membrane association of PDCs 12–14 and PDIP with HT144 cells. Cells were treated with PDIP or PDCs (4 μM) for 1 h, washed to remove extracellular compound, then extracted with 75% (v/v) MeCN in mQH2O (containing 1.75% (v/v) TFA), to recover soluble peptide or PDC from precipitated cell proteins. The relative amount of internalized peptide or PDC was determined by integrating area under the curve (AUC) for the [M + 6H]^6+ m/z peak (for the intact mass) using time of flight–mass spectrometry (see Figure S2). […] Data is expressed as mean ± SD from a single experiment with three technical replicates for each treatment and control and was analyzed with ANOVA (Tukey multiple comparisons; **p < 0.01, *p < 0.05). (C) Detection of intracellular CPT following 6 h treatment of HT144 cells with CPT and PDCs 12 and 14. […] Data is expressed as mean ± SD from a single experiment with three technical replicates for each treatment and was analyzed with ANOVA (Fisher multiple paired comparisons; **p < 0.01, *p < 0.05). TEXT PRINTED IN THE PICTURE: (A) PDIP: % recovered (soluble fractions): 94 | (A) 12: % recovered (soluble fractions): 58 | (A) 14: % recovered (soluble fractions): 33 | (A) 15: % recovered (soluble fractions): 40 | (A) c[A] PDIP: % recovered (soluble fractions): 34 | (A) CPT: % recovered (soluble fractions): 92 […]
For the first assay, the PDCs (12–15), scaffold peptides and CPT (4 μM) were added to the apical side of PAMPA monolayers and incubated for 4 h. […] PDIP, CPT, and PDCs 12 and 14 had high permeability (Papp ≥ 2 × 10^−6 cm/s), highlighting that these PDCs maintain membrane permeability with the CPT cargo attached. […] Reliable permeability data were not obtained for PDC 13 because of poor recovery of the PDC from soluble fractions, and degradation during the 4 h PAMPA experiment. […] Instability of the carbonate linkage within CPT conjugates containing a dipeptide linker has been previously reported (Walker et al. [2002]), highlighting the potential incompatibility of this drug–linker combination for CPT PDCs. Considering the observed degradation of 13 in the cell‐free assay, it is also possible that extracellular degradation occurred during the cytotoxicity assays.
Parallel artificial membrane permeability assay (PAMPA)
PAMPA was performed according to the manufacturer instructions for the BD Gentest pre-coated PAMPA plate system (BD Biosciences), as previously described.16 Briefly, peptides and PDCs (4 μM in PBS) were added to the apical side of PAMPA wells and incubated for 4 h at 37 °C, 5% CO2 with 95% humidity. Soluble fractions were recovered from the apical and basolateral sides, and compound concentration was quantified using a Shimadzu LCMS-2020 instrument with a Phenomenex 5 µm C18 / 300 Å / 150 x 2 mm LC column. Data was collected from three technical replicates for each compound. The % recovery was determined from (combined from apical and basolateral fractions) relative to the starting concentration:
Recovery rate : R (%) = (C஺ ×V஺ +C஻ ×V஻ )× 100 where CA and CB are the apical and basolateral concentrations (µM), VA and VB are the apical and basolateral volumes (mL), and C0 is the initial concentration (µM).
The apparent permeability coefficient (Papp) was calculated using the following equations17 and where A is the membrane surface area (cm2): […]

[2] = Cytotoxicity (resazurin) against cultured HaCaT noncancerous cells
Experimental: as §1, with “(SEM). […]” for “(SEM).”
as §3, §4
(§6) Toxicity to the HT144 and HaCaT cell lines was tested following peptide treatment by measuring the metabolism of resazurin into fluorescent resorufin. The assays were performed with 5000 cells/well (96-well plate) in serum free media. Cells were incubated with serially diluted peptides, PDCs or drugs for 72 h or 24 h (37 °C, 5% CO2). PBS and 0.1% (v/v) Triton X-100 were included as controls for 0% and 100% toxicity. Resazurin was added at 0.02% (w/v) final concentration 2 h prior to the assay end point. Fluorescence (λex = 560 nm, λem = 585 nm) was measured using a Tecan infinite M1000Pro multiplate reader. Percentage cytotoxicity was calculated relative to 0% and 100% controls.
(§7) Dose-response curves were fitted and CC50 values were determined using [inhibitor] vs response with four parameters with the top constrained to 100% (GraphPad Prism version 10.0.2). Data was collected as three biological replicates, with experiments conducted on different days.
(§8) Red blood cell (RBC) lysis
(§9) Human RBCs and serum were obtained from healthy volunteers via the Red Cross Lifeblood, Brisbane, Australia. RBCs were washed three times with PBS and stored in culture medium (RPMI

[3] = system: HaCaT (noncancerous) cells; test: as above; conditions: read-out: CC50 HaCaT; 72 h incubation, resazurin; mean (SEM)
Experimental: as §1, with “(SEM). […]” for “(SEM).”
as §3, §4, §6, §7, §8, §9

| SMILES | CC50 (cells) | cytotoxic activity against HT144 (HT144 (melanoma) cells) | % recovered (soluble fractions) ([1]; 4 μM, 4 h, combined apical and basolateral fractions) | Papp at 4 h, 4 μM ([1]; 4 μM, 4 h, apical to basolateral, read-out: apparent permeability (Papp)) | CC50 [2] | Papp at 4 h, 4 μM [1] | CC50 [3] |
| --- | --- | --- | --- | --- | --- | --- | --- |
| CC[C@H](C)[C@@H]1NC(=O)[C@H](CCCCN)NC(=O)[C@H](CCCCN)NC(=O)[C@H](Cc2ccc(O)cc2)NC(=O)[C@H](CC(C)C)NC(=O)[C@@H]2CCCN2C(=O)CNC(=O)CNC(=O)[C@@H](NC(=O)CN)CSSC[C@@H](C(=O)N[C@@H](CCC(=O)O)C(=O)N[C@@H](CO)C(N)=O)NC(=O)[C@H](CC(C)C)NC(=O)[C@H](CCCCN)NC(=O)[C@H](CCCCN)NC(=O)[C@H]([C@@H](C)CC)NC(=O)[C@H]([C@@H](C)CC)NC(=O)[C@H](CCCCN)NC(=O)[C@H](CCCCN)NC(=O)[C@H](Cc2ccc(O)cc2)NC(=O)[C@H](CC(C)C)NC(=O)[C@@H]2CCCN2C(=O)[C@H](C)NC(=O)CNC(=O)CNC(=O)[C@H](Cn2cc(CCCC(=O)O[C@]3(CC)C(=O)OCc4c3cc3n(c4=O)Cc4cc5ccccc5nc4-3)nn2)NC(=O)CNC(=O)CNC(=O)[C@H](CO)NC(=O)[C@H](CCC(=O)O)NC(=O)[C@H](CC(C)C)NC(=O)[C@H](CC(C)C)NC(=O)[C@H](CCCCN)NC(=O)[C@H](CCCCN)NC(=O)[C@H]([C@@H](C)CC)NC1=O [PDC 12] | > 2 µM | no activity | 58% | ≥ 2 ×10⁻⁶ cm/s | > 2 µM | – | – |
| CC[C@H](C)[C@@H]1NC(=O)[C@H](CCCCN)NC(=O)[C@H](CCCCN)NC(=O)[C@H](Cc2ccc(O)cc2)NC(=O)[C@H](CC(C)C)NC(=O)[C@@H]2CCCN2C(=O)[C@H](C)NC(=O)CNC(=O)CNC(=O)[C@H](CO)NC(=O)CNC(=O)CNC(=O)[C@H](CO)NC(=O)[C@H](CCC(=O)O)NC(=O)[C@H](CC(C)C)NC(=O)[C@H](CC(C)C)NC(=O)[C@H](CCCCN)NC(=O)[C@H](CCCCN)NC(=O)[C@H]([C@@H](C)CC)NC(=O)[C@H]([C@@H](C)CC)NC(=O)[C@H](CCCCN)NC(=O)[C@H](CCCCN)NC(=O)[C@H](Cc2ccc(O)cc2)NC(=O)[C@H](CC(C)C)NC(=O)[C@@H]2CCCN2C(=O)[C@H](C)NC(=O)CNC(=O)CNC(=O)[C@H](C)NC(=O)CNC(=O)CNC(=O)[C@H](CO)NC(=O)[C@H](CCC(=O)O)NC(=O)[C@H](CC(C)C)NC(=O)[C@H](CC(C)C)NC(=O)[C@H](CCCCN)NC(=O)[C@H](CCCCN)NC(=O)[C@H]([C@@H](C)CC)NC1=O [c[A]PDIP] (cyclo(AGGAPLYKKIIKKLLESGGSGGAPLYKKIIKKLLESGG)) | 9.35 µM | – | – | – | ~32 µM | ~0.4 ×10⁻⁶ cm/s | ≥ 32 µM |
